The subject of one series is CGRP. Further details: species or system mice. The note with it: capsaicin 1 μM; 3 h.
The subject of series [1] is cytotoxic CD8+ T-cells co-cultured with DRG neurons. Description: DRG neuron / cytotoxic CD8+ T-cell co-culture. The class given is cell-based, mice. To be noted: for INFγ+ CD8+ T-cells in co-culture with DRG neurons / TNFα+ CD8+ T-cells in co-culture with DRG neurons / proportion of PD1+Lag3+Tim3+ CD8+ T-cells in co-culture with DRG neurons: neuron stimulation, 48 h co-culture. The method, then:
Naïve DRG neurons (1×10^4) were seeded in T cell media (supplemented with 0.05 ng/μL NGF (Life Technologies, #13257-019), 0.002 ng/μL GDNF (Peprotech, #450-51-10), and co-cultured with Tc1 CD8 T cells (1×10^5) in presence of IL-2 (575408). In some instances, co-cultures were stimulated with either of capsaicin (300 nM, twice/day) or KCl (40 mM). After 48 h, the cells were collected by centrifugation (5 min at 1300 rpm), stained and immunophenotyped by flow cytometry.

For series [2] the test system is unchanged. Description: DRG neuron / cytotoxic CD8+ T-cell co-culture. The note with it: capsaicin without neurons. The class given is cell-based, mice.
Series [3] relates to B16F10. The class given is in vivo, mice. The note with it: for reduction of B16F10 melanoma growth compared with vehicle / reduction of tumor weight compared with vehicle: B16F10-bearing mice; for reduction of B16F10 melanoma growth compared with vehicle: QX-314 0.3% daily i.d. surrounding the tumor, BIBN4096 systemically once every two days (5 mg/kg i.p.); for reduction of tumor weight compared with vehicle: QX-314 0.3% daily i.d., BIBN4096 5 mg/kg i.p.

Series [4] deals with tumor-infiltrating CD8+ and CD4+ T-cells. The class given is in vivo, mice. The note with it: for reduction of the proportion of PD1+Lag3+Tim3+ CD8+ T-cells: intra-tumoral, QX-314 0.3% daily i.d.
Series [5] relates to B16F10. The class given is in vivo, mice.
In another series the test system is B16F10 cells. The class given is cell-based, mouse. The note with it: BIBN4096 1-4 μM.
Series [6] has as its system B16F10. Also on record: species or system mice. To be noted: mouse, in vivo.
Series [7] has as its system tumor-infiltrating CD8 and CD4 T cells. The class given is in vivo, mice.
The next series deals with CGRP receptor (Mus musculus, UniProt Q9R1W5+Q9WTJ5). The note with it: in vivo; cited from earlier work.
Chain of CGRP receptor (Q9R1W5 25-463): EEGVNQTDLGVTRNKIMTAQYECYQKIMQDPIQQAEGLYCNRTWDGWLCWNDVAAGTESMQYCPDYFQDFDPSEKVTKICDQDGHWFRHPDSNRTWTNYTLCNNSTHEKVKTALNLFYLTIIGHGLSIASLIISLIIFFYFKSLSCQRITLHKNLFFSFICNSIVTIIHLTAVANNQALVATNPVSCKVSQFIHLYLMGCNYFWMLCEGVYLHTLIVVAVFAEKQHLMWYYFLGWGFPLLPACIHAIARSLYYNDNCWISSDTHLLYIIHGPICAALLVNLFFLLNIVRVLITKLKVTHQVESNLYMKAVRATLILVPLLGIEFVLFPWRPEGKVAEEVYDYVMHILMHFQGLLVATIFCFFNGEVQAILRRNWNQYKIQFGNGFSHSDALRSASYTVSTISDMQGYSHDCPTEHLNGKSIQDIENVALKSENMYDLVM
Chain of CGRP receptor (Q9WTJ5 27-148): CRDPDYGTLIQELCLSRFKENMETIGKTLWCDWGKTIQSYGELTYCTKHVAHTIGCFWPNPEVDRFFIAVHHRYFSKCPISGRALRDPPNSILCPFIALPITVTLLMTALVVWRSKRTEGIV

“Also recorded” adds a separate entry of the source. Where two headings read alike, the source gives them in different places.

For `COc1cc(CNC(=O)CCCC/C=C/C(C)C)ccc1O` [capsaicin], the “CGRP levels in B16F10 tumor surrounding skin explant” value in the series on CGRP is “further enhanced”. In addition, in series [1] (capsaicin-challenge), the “IL2+ CD8+ T-cells in co-culture with DRG neurons” value is on record as “decreased” and the “proportion of PD1+ T cells in co-culture with DRG neurons” value is “increases”. In addition, in [1], the “INFγ+ CD8+ T-cells in co-culture with DRG neurons” value (“INFγ+ CD8+ T-cells in co-culture” for short) is “reduced; also recorded: decreased”, the “TNFα+ CD8+ T-cells in co-culture with DRG neurons” value (shortened to “TNFα+ CD8+ T-cells in co-culture”) is “decreased; also recorded: reduced” and the “proportion of PD1+Lag3+Tim3+ CD8+ T-cells in co-culture with DRG neurons” value is listed as “increased”. Besides, in series [1] (listed as Capsaicin), the “INFγ+ CD8+ T-cells in co-culture” value is reported as “decreased” and the “TNFα+ CD8+ T-cells in co-culture” value was “decreased”. For the same compound, the “impact on CD8+ T-cells in the absence of neurons” value in series [2] is listed as “no measurable impact”.

With `CC[N+](CC)(CC)CC(=O)Nc1c(C)cccc1C` [QX-314], in the series with B16F10 [3], the “reduction of B16F10 melanoma growth compared with vehicle” value is around 3.3 fold and the “reduction of tumor weight compared with vehicle” value is around 5.2 fold. In addition, in series [4] (BIBN4096 5 mg/kg i.p.), the “reduction of the proportion of PD1+Lag3+Tim3+ CD8+ T-cells” value is reported as around 15 fold. Further, the “rate at which vehicle exposed mice succumb relative to treated mice” value with B16F10 [5] (B16F10-bearing mice, p≤0.0001) was determined as 2.7 fold. The “hazard ratio (survival)” value in the series with B16F10 [5] (mouse, in vivo) came to 0.37. Moreover, in the series with cytotoxic CD8+ T-cells, the “IL2+ cultured cytotoxic CD8+ T-cells” value is “do not impact”, the “INFγ+ cultured cytotoxic CD8+ T-cells” value is on record as “do not impact”, the “TNFα+ cultured cytotoxic CD8+ T-cells” value is listed as “do not impact” and the “proportion of PD1+Lag3+Tim3+ cultured cytotoxic CD8+ T-cells” value is reported as “do not impact”. The “survival of cultured cytotoxic CD8+ T-cells” value in the series with cytotoxic CD8+ T-cells is “do not impact”.

On to `NCCCC[C@H](NC(=O)[C@@H](Cc1cc(Br)c(O)c(Br)c1)NC(=O)N1CCC(N2Cc3ccccc3NC2=O)CC1)C(=O)N1CCN(c2ccncc2)CC1` [BIBN4096], for which, in the series on B16F10 [3], the “reduction of B16F10 melanoma growth compared with vehicle” value is on record as around 1.5 fold and the “reduction of tumor weight compared with vehicle” value is around 1.9 fold. Besides, in the series with B16F10 [3] (mouse, in vivo, ip, 5 mg/kg), the B16F10 tumor growth result is given as “decreased”, the B16F10 tumor volume entry is “decreased” and the B16F10 tumor weight result is recorded as “decreased”. In addition, in [4] (BIBN4096 5 mg/kg i.p.), the “increase of intra-tumor number of INFγ+ CD8+ T-cells” value was around 3 fold, the “increase of intra-tumor number of total CD8+ T-cells” value is around 3 fold, the “intra-tumoral number of Granzyme B+ CD4+ T-cells” value is listed as “increased” and the “intra-tumoral number of INFγ+ CD4+ T-cells” value is “increased”. In series [4] (BIBN4096 5 mg/kg i.p.), the “intra-tumoral number of TNFα+ CD4+ T-cells” value is given as “increased”, the “intra-tumoral proportion of PD1+ CD4+ T-cells” value was “decreased” and the “reduction of the proportion of PD1+Lag3+Tim3+ CD8+ T-cells” value is reported as around 2.5 fold. Further, in [4] (Example 1 dosing), the “intra-tumoral number of Granzyme B+ CD8+ T-cells” value is given as “increased”, the “intra-tumoral number of INFγ+ CD8+ T-cells” value is given as “increased”, the “intra-tumoral number of TNFα+ CD8+ T-cells” value was “increased” and the “intra-tumoral number of total CD8+ T-cells” value is “increased”. Further, the “intra-tumoral total CD4+ T-cells counts” value in [4] (mouse, in vivo) was “increased”. Besides, the “number/proportion of intra-tumor PD1+Lag3+Tim3+ CD8+ T-cells” value in series [4] (mouse, in vivo, ip, 5 mg/kg) was “decreased”. Further, the “cultured B16F10 survival” value with B16F10 cells is “no impact”. Also, in the series with B16F10 [6], the B16F10 tumor growth result was “reduced; also recorded: decreased”, the B16F10 tumor volume entry is recorded as “reduced” and the B16F10 tumor weight result is reported as “reduced”. For the same compound, the “intra-tumor PD1+ CD8 T cells” value in [7] (BIBN 5 mg/kg) is recorded as “decreased”. In addition, the “tumor infiltration of PD1+ CD4 T cells” value in [7] (BIBN 5 mg/kg i.d.) is reported as “decreased”. In series [7] (Example 2 dosing), the “infiltration of INFγ+ CD8 T cells” value was “increasing; also recorded: enhanced”, the “total number of intra-tumoral CD4 T cells” value is on record as “enhanced; also recorded: increased”, the “tumor infiltration of INFγ+ CD4 T cells” value is listed as “increased” and the “tumor infiltration of TNFα+ CD4 T cells” value is “decreased”. Moreover, the “tumor infiltration of TNFα+ CD8 T cells” value in [7] (Example 2 dosing) is given as “increasing; also recorded: increased”. Besides, in series [7] (mouse, in vivo), the “tumor infiltration of Granzyme B+ CD4 T cells” value is listed as “increased” and the “tumor infiltration of Granzyme B+ CD8 T cells” value is reported as “increasing; also recorded: increased”. Moreover, in the series on cytotoxic CD8+ T-cells, the “IL2+ cultured cytotoxic CD8+ T-cells” value is “do not impact”, the “INFγ+ cultured cytotoxic CD8+ T-cells” value is on record as “do not impact”, the “TNFα+ cultured cytotoxic CD8+ T-cells” value was “do not impact” and the “proportion of PD1+Lag3+Tim3+ cultured cytotoxic CD8+ T-cells” value is reported as “do not impact”. The “survival of cultured cytotoxic CD8+ T-cells” value with cytotoxic CD8+ T-cells was “do not impact”. Besides, the “effects of αCD3/αCD28 stimulation on CD8+ T-cells” value with cytotoxic CD8+ T-cells (BIBN4096 1-4 μM) is “do not prevent”. At CGRP receptor, the “host anti-bacterial activity during microbe infection” value was “rescues”.

Regarding `[Cl-].[K+]` [KCl, potassium chloride], in [1], the “INFγ+ CD8+ T-cells in co-culture” value was “decreased”, the “TNFα+ CD8+ T-cells in co-culture” value is listed as “decreased” and the “proportion of PD1+Lag3+Tim3+ CD8+ T-cells in co-culture with DRG neurons” value is given as “increased”.

Values taken from patent publication US20230165812A1, “NOCICEPTOR NEURONS CONTROL CANCER IMMUNOSURVEILLANCE” (priority 2020, published 2023).
